Experimental data as given in ChEMBL document CHEMBL3045265, “Synthesis and Fungicidal Activity of 2-Alkoxyimino-2-cyanoacetamide Derivatives” (1998).

Columns and labels:
Type in all cases: functional
[1] = test system: Pseudoperonospora cubensis; assay: Fungicidal activity against Pseudoperonospora cubensis in cucumber plant assessed as cucumber downy mildew disease control at 7.8 ppm at 22 +/- 2 degC, 98% RH measured after 10 days
[2] = test system: Pseudoperonospora cubensis; assay: Fungicidal activity against Pseudoperonospora cubensis in cucumber plant assessed as cucumber downy mildew disease control at 31.3 ppm at 22 +/- 2 degC, 98% RH measured after 10 days
[3] = test system: Pseudoperonospora cubensis; assay: Fungicidal activity against Pseudoperonospora cubensis in cucumber plant assessed as cucumber downy mildew disease control at 500 ppm at 22 +/- 2 degC, 98% RH measured after 10 days
[4] = test system: Pseudoperonospora cubensis; assay: Fungicidal activity against Pseudoperonospora cubensis in cucumber plant assessed as cucumber downy mildew disease control at 125 ppm at 22 +/- 2 degC, 98% RH measured after 10 days

SMILES | Activity [3] [%] | Activity [4] [%] | further results
CO/N=C(\C#N)C(=O)NC1=NOC(C)(C)C1 |  |  | Activity [1]: 70%
CO/N=C(\C#N)C(=O)NC1=NOC(C)C1 (stereo unspecified) |  |  | Activity [2]: 70%
CO/N=C(\C#N)C(=O)NC1=NOC(c2ccccc2)C1 (stereo unspecified) | <70 |  | 
CO/N=C(\C#N)C(=O)NC1=NOC(CCl)(CCl)C1 |  | 70 | 
CO/N=C(\C#N)C(=O)NC1=NOC(C)(C)C1C (stereo unspecified) | 70 |  | 
CCO/N=C(\C#N)C(=O)NC1=NOC(C)(C)C1 |  |  | Activity [2]: 70%
CC(C)O/N=C(\C#N)C(=O)NC1=NOC(C)(C)C1 |  |  | Activity [2]: 70%
C=CCO/N=C(\C#N)C(=O)NC1=NOC(C)(C)C1 |  | 70 | 
CC1(C)CC(NC(=O)/C(C#N)=N/OCC#N)=NO1 | <70 |  | 
CC1(C)CC(NC(=O)/C(C#N)=N/OCc2ccccc2)=NO1 | <70 |  | 
COCO/N=C(\C#N)C(=O)NC1=NOC(C)(C)C1 |  | 70 | 
CO/N=C(\C#N)C(=O)N(C)C1=NOC(C)(C)C1 | <70 |  | 
CCN(C(=O)/C(C#N)=N/OC)C1=NOC(C)(C)C1 | <70 |  | 
CO/N=C(\C#N)C(=O)N(CC(=O)OC)C1=NOC(C)(C)C1 | <70 |  | 
COCN(C(=O)/C(C#N)=N/OC)C1=NOC(C)(C)C1 | <70 |  | 
CO/N=C(\C#N)C(=O)Nc1cc(C)cs1 | <70 |  | 
CO/N=C(\C#N)C(=O)Nc1nnc(C)s1 | <70 |  | 
CO/N=C(\C#N)C(=O)Nc1cc(C)on1 |  | 70 | 
CCOC(=O)NNC(=O)NC(=O)/C(C#N)=N/OC | <70 |  | 
CO/N=C(\C#N)C(=O)NC(=O)NNC(=O)c1ccccc1 | <70 |  | 
CO/N=C(\C#N)C(=O)NC(=O)NNS(=O)(=O)c1ccccc1 | <70 |  | 
CO/N=C(\C#N)C(=O)NC(=O)OC(C)C |  | 70 | 
CO/N=C(\C#N)C(=O)NC(=O)OC(C)(C)C(=O)OC | 70 |  | 

SMILES | Activity [3] [%] | Activity [4] [%] | further results
CO/N=C(\C#N)C(=O)NC(=O)OCC(C)(C)C(=O)OC | <70 |  | 
CO/N=C(\C#N)C(=O)NC(=O)OCC(=O)N(C)c1ccccc1 | <70 |  | 
CO/N=C(\C#N)C(=O)NC(=O)ON=C(C)C | 70 |  | 
CO/N=C(\C#N)C(=O)NC1=NOCC1 |  | 70 | 
CO/N=C(\C#N)C(=O)NC1=NOCC1C (stereo unspecified) |  | 70 | 
CCC1CC(NC(=O)/C(C#N)=N/OC)=NO1 (stereo unspecified) |  | 70 | 
CO/N=C(\C#N)C(=O)NC1=NOC(C(C)C)C1 (stereo unspecified) |  | 70 | 
CCCCC1CC(NC(=O)/C(C#N)=N/OC)=NO1 (stereo unspecified) |  | 70 | 
CO/N=C(\C#N)C(=O)NC1=NOC(C2CCCCC2)C1 (stereo unspecified) | <70 |  | 
CO/N=C(\C#N)C(=O)NC1=NOC(Cc2ccccc2)C1 (stereo unspecified) | <70 |  | 
C=CC1CC(NC(=O)/C(C#N)=N/OC)=NO1 (stereo unspecified) | <70 |  | Activity [2]: 70%
CO/N=C(\C#N)C(=O)NC1=NOC(CO)C1 (stereo unspecified) |  | 70 | 
CO/N=C(\C#N)C(=O)NC1=NOC(CCl)C1 (stereo unspecified) |  |  | Activity [2]: 70%
CO/N=C(\C#N)C(=O)NC1=NOC(C)C1C (stereo unspecified) |  | 70 | 
CCC1ON=C(NC(=O)/C(C#N)=N/OC)C1CC (stereo unspecified) | 70 |  | 
CCC1(CC)CC(NC(=O)/C(C#N)=N/OC)=NO1 |  | 70 | 
CCC1(C)CC(NC(=O)/C(C#N)=N/OC)=NO1 (stereo unspecified) |  | 70 | 
CCCC1(C)CC(NC(=O)/C(C#N)=N/OC)=NO1 (stereo unspecified) |  | 70 | 
CO/N=C(\C#N)C(=O)NC1=NOC(C)(CO)C1 (stereo unspecified) |  |  | Activity [2]: 70%
CO/N=C(\C#N)C(=O)NC1=NOC(C)(CCl)C1 (stereo unspecified) |  |  | Activity [2]: 70%
CO/N=C(\C#N)C(=O)NC1=NOC(C(C)(C)C)C1 (stereo unspecified) |  | 70 | 
CO/N=C(\C#N)C(=O)NC(=O)OC(C)(C)C |  | 70 | 
